Laboratory results reported in the kinase profiling compilation of Christmann-Franck et al. (2016).

These compounds were tested against PHKG1 (human) (UniProt Q16816) (assay: radiometric filter-binding kinase assay). Conditions: compound 100.0 µM; ATP 50 µM.
Chain of PHKG1 (human) (Q16816 whole entry, looked up): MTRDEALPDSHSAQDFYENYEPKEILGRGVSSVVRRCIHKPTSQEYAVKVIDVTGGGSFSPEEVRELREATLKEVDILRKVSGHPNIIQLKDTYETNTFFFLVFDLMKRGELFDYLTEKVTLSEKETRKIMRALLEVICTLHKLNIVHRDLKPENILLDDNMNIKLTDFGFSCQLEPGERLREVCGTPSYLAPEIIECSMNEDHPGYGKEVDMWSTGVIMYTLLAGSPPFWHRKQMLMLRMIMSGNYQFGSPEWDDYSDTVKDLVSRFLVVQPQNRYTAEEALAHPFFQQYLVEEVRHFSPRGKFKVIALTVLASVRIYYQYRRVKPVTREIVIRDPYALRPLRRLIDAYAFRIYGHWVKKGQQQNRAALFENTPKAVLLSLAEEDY
Compound `CC(=O)Nc1nc2cnc(-c3c(C)cccc3C)cn2n1` has an inhibition of 0%.
Work on `CC(C)(C)Nc1c(C2CC2)nc2[nH]cnn12` yielded an inhibition of 6%.
In the case of `O=c1cc(-c2ccccc2F)nc2[nH]ccn12`, the inhibition is reported as 8%.

These compounds were tested against MAPKAPK5 (human) (UniProt Q8IW41) (assay: radiometric filter-binding kinase assay). Conditions: compound 100.0 µM; ATP 20 µM.
`COc1ccc(-c2cc3c(=O)[nH]cnc3s2)cc1OC` was tested, and the inhibition was 5%.
`COc1ccc(NC(=S)Nc2cnc3[nH]cnn3c2=O)cn1` gave an inhibition of 3%.
`CC(=O)Nc1nc2cnc(-c3c(C)cccc3C)cn2n1` gave an inhibition of 17%.
With `CC(C)(C)Nc1c(C2CC2)nc2[nH]cnn12` the inhibition was 13%.
For `O=c1cc(-c2ccccc2F)nc2[nH]ccn12`, the inhibition was 13%.

The compounds below were run against MAPK9 (human) (UniProt P45984) (assay: radiometric filter-binding kinase assay). Conditions: compound 100.0 µM; ATP 20 µM.
In the case of `COc1ccc(-c2cc3c(=O)[nH]cnc3s2)cc1OC`, the inhibition is reported as 8%.
`COc1ccc(NC(=S)Nc2cnc3[nH]cnn3c2=O)cn1` was tested, and the inhibition was 5%.
Compound `CC(=O)Nc1nc2cnc(-c3c(C)cccc3C)cn2n1` has an inhibition of 0%.
In the case of `CC(C)(C)Nc1c(C2CC2)nc2[nH]cnn12`, the inhibition is reported as 3%.
Compound `O=c1cc(-c2ccccc2F)nc2[nH]ccn12` has an inhibition of 10%.

Each compound was assayed against MAP2K2 (human) (UniProt P36507) (assay: radiometric filter-binding kinase assay). Conditions: compound 100.0 µM; ATP 5 µM.
With `COc1ccc(-c2cc3c(=O)[nH]cnc3s2)cc1OC` the inhibition was 0%.
`COc1ccc(NC(=S)Nc2cnc3[nH]cnn3c2=O)cn1` showed an inhibition of 0%.
For `CC(=O)Nc1nc2cnc(-c3c(C)cccc3C)cn2n1`, the inhibition was 0%.
With `CC(C)(C)Nc1c(C2CC2)nc2[nH]cnn12` the inhibition was 0%.
`O=c1cc(-c2ccccc2F)nc2[nH]ccn12` gave an inhibition of 18%.

What follows are compounds tested against MAPK3 (human) (UniProt P27361) (assay: radiometric filter-binding kinase assay). Conditions: compound 100.0 µM; ATP 5 µM.
Compound `COc1ccc(-c2cc3c(=O)[nH]cnc3s2)cc1OC` has an inhibition of 26%.
`COc1ccc(NC(=S)Nc2cnc3[nH]cnn3c2=O)cn1` was tested, and the inhibition was 0%.
In the case of `CC(=O)Nc1nc2cnc(-c3c(C)cccc3C)cn2n1`, the inhibition is reported as 10%.
For `CC(C)(C)Nc1c(C2CC2)nc2[nH]cnn12`, the inhibition was 0%.
`O=c1cc(-c2ccccc2F)nc2[nH]ccn12` was tested, and the inhibition was 3%.

Each compound was assayed against MAP3K7 TAB1 (human) (UniProt Q15750+O43318) (assay: radiometric filter-binding kinase assay). Conditions: compound 100.0 µM; ATP 5 µM.
Compound `COc1ccc(-c2cc3c(=O)[nH]cnc3s2)cc1OC` has an inhibition of 45%.
With `COc1ccc(NC(=S)Nc2cnc3[nH]cnn3c2=O)cn1` the inhibition was 2%.
Compound `CC(=O)Nc1nc2cnc(-c3c(C)cccc3C)cn2n1` has an inhibition of 0%.
With `CC(C)(C)Nc1c(C2CC2)nc2[nH]cnn12` the inhibition was 3%.
Work on `O=c1cc(-c2ccccc2F)nc2[nH]ccn12` yielded an inhibition of 37%.

The compounds below were run against FGFR1 (human) (UniProt P11362) (assay: radiometric filter-binding kinase assay). Conditions: compound 100.0 µM; ATP 20 µM.
In the case of `COc1ccc(-c2cc3c(=O)[nH]cnc3s2)cc1OC`, the inhibition is reported as 32%.
Compound `COc1ccc(NC(=S)Nc2cnc3[nH]cnn3c2=O)cn1` has an inhibition of 25%.
In the case of `CC(=O)Nc1nc2cnc(-c3c(C)cccc3C)cn2n1`, the inhibition is reported as 3%.
`CC(C)(C)Nc1c(C2CC2)nc2[nH]cnn12` showed an inhibition of 65%.
`O=c1cc(-c2ccccc2F)nc2[nH]ccn12` showed an inhibition of 41%.

Each compound was assayed against HIPK3 (human) (UniProt Q9H422) (assay: radiometric filter-binding kinase assay). Conditions: compound 100.0 µM; ATP 20 µM.
`COc1ccc(-c2cc3c(=O)[nH]cnc3s2)cc1OC` was tested, and the inhibition was 0%.
Compound `COc1ccc(NC(=S)Nc2cnc3[nH]cnn3c2=O)cn1` has an inhibition of 0%.
Work on `CC(=O)Nc1nc2cnc(-c3c(C)cccc3C)cn2n1` yielded an inhibition of 0%.
`CC(C)(C)Nc1c(C2CC2)nc2[nH]cnn12` showed an inhibition of 0%.
`O=c1cc(-c2ccccc2F)nc2[nH]ccn12` gave an inhibition of 0%.

Each compound was assayed against MAPK13 (human) (UniProt O15264) (assay: radiometric filter-binding kinase assay). Conditions: compound 100.0 µM; ATP 5 µM.
Compound `COc1ccc(-c2cc3c(=O)[nH]cnc3s2)cc1OC` has an inhibition of 0%.
`COc1ccc(NC(=S)Nc2cnc3[nH]cnn3c2=O)cn1` gave an inhibition of 0%.
Work on `CC(=O)Nc1nc2cnc(-c3c(C)cccc3C)cn2n1` yielded an inhibition of 19%.
`CC(C)(C)Nc1c(C2CC2)nc2[nH]cnn12` was tested, and the inhibition was 0%.
In the case of `O=c1cc(-c2ccccc2F)nc2[nH]ccn12`, the inhibition is reported as 0%.

The compounds below were run against ERBB4 (human) (UniProt Q15303) (assay: radiometric filter-binding kinase assay). Conditions: compound 100.0 µM; ATP 5 µM.
Chain of ERBB4 (human) (Q15303 whole entry, looked up): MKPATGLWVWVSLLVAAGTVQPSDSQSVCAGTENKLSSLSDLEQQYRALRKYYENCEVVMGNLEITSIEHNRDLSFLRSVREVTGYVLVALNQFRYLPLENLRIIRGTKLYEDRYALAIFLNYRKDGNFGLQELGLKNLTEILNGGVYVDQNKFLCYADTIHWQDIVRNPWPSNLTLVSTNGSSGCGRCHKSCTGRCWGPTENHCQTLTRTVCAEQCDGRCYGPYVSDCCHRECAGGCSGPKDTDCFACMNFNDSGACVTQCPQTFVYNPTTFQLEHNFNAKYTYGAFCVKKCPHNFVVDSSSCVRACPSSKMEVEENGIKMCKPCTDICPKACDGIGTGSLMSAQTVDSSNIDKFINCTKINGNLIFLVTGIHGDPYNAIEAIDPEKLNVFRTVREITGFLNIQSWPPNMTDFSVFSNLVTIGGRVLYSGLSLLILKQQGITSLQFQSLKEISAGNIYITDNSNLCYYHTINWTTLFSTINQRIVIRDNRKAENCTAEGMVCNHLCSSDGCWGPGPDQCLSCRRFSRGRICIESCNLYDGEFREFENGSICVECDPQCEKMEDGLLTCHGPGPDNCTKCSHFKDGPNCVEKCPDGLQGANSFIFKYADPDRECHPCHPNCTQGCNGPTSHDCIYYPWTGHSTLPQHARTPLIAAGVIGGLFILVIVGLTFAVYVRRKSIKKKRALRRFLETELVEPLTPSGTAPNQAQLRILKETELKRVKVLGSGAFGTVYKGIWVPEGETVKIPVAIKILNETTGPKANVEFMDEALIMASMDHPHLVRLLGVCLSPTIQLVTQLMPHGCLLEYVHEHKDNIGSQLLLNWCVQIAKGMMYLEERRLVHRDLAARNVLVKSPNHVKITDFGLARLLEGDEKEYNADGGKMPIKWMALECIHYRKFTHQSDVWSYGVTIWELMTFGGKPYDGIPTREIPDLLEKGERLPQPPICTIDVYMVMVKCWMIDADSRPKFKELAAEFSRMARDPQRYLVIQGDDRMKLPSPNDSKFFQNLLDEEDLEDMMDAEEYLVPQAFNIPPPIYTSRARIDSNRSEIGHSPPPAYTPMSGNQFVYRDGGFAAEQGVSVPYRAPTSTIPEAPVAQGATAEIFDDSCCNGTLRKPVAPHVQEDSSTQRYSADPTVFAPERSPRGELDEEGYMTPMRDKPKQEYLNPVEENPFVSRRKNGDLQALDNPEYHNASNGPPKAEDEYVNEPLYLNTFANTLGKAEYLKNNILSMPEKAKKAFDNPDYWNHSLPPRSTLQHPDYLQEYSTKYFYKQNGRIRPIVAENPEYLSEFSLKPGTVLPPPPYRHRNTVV
`COc1ccc(-c2cc3c(=O)[nH]cnc3s2)cc1OC` gave an inhibition of 17%.
`COc1ccc(NC(=S)Nc2cnc3[nH]cnn3c2=O)cn1` showed an inhibition of 31%.
For `CC(=O)Nc1nc2cnc(-c3c(C)cccc3C)cn2n1`, the inhibition was 9%.
In the case of `CC(C)(C)Nc1c(C2CC2)nc2[nH]cnn12`, the inhibition is reported as 19%.
With `O=c1cc(-c2ccccc2F)nc2[nH]ccn12` the inhibition was 48%.

Each compound was assayed on RPS6KB1 (human), P23443 [T412E] (assay: radiometric filter-binding kinase assay). Conditions: compound 100.0 µM; ATP 20 µM.
For `COc1ccc(-c2cc3c(=O)[nH]cnc3s2)cc1OC`, the inhibition was 30%.
In the case of `COc1ccc(NC(=S)Nc2cnc3[nH]cnn3c2=O)cn1`, the inhibition is reported as 0%.
`CC(=O)Nc1nc2cnc(-c3c(C)cccc3C)cn2n1` was tested, and the inhibition was 0%.
Compound `CC(C)(C)Nc1c(C2CC2)nc2[nH]cnn12` has an inhibition of 0%.
`O=c1cc(-c2ccccc2F)nc2[nH]ccn12` showed an inhibition of 8%.

What follows are compounds tested against MAPK12 (human) (UniProt P53778) (assay: radiometric filter-binding kinase assay). Conditions: compound 100.0 µM; ATP 5 µM.
Compound `COc1ccc(-c2cc3c(=O)[nH]cnc3s2)cc1OC` has an inhibition of 0%.
`COc1ccc(NC(=S)Nc2cnc3[nH]cnn3c2=O)cn1` was tested, and the inhibition was 0%.
`CC(=O)Nc1nc2cnc(-c3c(C)cccc3C)cn2n1` was tested, and the inhibition was 0%.
For `CC(C)(C)Nc1c(C2CC2)nc2[nH]cnn12`, the inhibition was 0%.
For `O=c1cc(-c2ccccc2F)nc2[nH]ccn12`, the inhibition was 6%.

The compounds below were run against EPHA4 (human) (UniProt P54764) (assay: radiometric filter-binding kinase assay). Conditions: compound 100.0 µM; ATP 50 µM.
Chain of EPHA4 (human) (P54764 whole entry, looked up): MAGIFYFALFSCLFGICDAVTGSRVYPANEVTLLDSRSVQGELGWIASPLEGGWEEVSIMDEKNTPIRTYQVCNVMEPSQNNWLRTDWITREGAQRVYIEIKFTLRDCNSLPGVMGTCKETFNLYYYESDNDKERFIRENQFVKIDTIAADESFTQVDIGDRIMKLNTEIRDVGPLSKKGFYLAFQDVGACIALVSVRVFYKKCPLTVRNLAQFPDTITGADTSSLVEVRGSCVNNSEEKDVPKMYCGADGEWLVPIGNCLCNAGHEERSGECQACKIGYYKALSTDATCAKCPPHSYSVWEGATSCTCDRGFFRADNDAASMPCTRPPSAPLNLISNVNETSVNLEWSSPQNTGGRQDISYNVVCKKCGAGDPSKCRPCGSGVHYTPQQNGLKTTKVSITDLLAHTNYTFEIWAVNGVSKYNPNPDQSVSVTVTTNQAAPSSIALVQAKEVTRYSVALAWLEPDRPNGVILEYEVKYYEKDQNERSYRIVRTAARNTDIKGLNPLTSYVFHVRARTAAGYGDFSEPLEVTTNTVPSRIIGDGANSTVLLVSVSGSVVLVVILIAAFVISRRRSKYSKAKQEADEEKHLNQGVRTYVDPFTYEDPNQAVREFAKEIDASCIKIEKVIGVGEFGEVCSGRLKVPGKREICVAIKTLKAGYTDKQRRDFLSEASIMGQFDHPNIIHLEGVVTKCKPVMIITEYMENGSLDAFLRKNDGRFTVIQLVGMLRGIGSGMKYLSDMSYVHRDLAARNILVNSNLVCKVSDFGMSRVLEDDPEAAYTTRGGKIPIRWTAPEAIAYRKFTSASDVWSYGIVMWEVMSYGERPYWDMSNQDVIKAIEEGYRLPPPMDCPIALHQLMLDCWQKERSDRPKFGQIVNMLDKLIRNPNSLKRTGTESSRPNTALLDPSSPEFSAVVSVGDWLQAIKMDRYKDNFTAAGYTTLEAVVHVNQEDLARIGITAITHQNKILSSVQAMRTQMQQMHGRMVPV
In the case of `COc1ccc(-c2cc3c(=O)[nH]cnc3s2)cc1OC`, the inhibition is reported as 12%.
With `COc1ccc(NC(=S)Nc2cnc3[nH]cnn3c2=O)cn1` the inhibition was 22%.
`CC(=O)Nc1nc2cnc(-c3c(C)cccc3C)cn2n1` showed an inhibition of 10%.
Compound `CC(C)(C)Nc1c(C2CC2)nc2[nH]cnn12` has an inhibition of 9%.
`O=c1cc(-c2ccccc2F)nc2[nH]ccn12` was tested, and the inhibition was 16%.

These compounds were tested against CLK2 (human) (UniProt P49760) (assay: radiometric filter-binding kinase assay). Conditions: compound 100.0 µM; ATP 5 µM.
Compound `COc1ccc(-c2cc3c(=O)[nH]cnc3s2)cc1OC` has an inhibition of 50%.
`COc1ccc(NC(=S)Nc2cnc3[nH]cnn3c2=O)cn1` gave an inhibition of 1%.
`CC(=O)Nc1nc2cnc(-c3c(C)cccc3C)cn2n1` showed an inhibition of 28%.
`CC(C)(C)Nc1c(C2CC2)nc2[nH]cnn12` was tested, and the inhibition was 34%.
Work on `O=c1cc(-c2ccccc2F)nc2[nH]ccn12` yielded an inhibition of 48%.

The compounds below were run on PAK2 (human), Q13177 [T402E] (assay: radiometric filter-binding kinase assay). Conditions: compound 100.0 µM; ATP 20 µM.
Chain of PAK2 (human), Q13177 [T402E] (Q13177 whole entry T402E, looked up): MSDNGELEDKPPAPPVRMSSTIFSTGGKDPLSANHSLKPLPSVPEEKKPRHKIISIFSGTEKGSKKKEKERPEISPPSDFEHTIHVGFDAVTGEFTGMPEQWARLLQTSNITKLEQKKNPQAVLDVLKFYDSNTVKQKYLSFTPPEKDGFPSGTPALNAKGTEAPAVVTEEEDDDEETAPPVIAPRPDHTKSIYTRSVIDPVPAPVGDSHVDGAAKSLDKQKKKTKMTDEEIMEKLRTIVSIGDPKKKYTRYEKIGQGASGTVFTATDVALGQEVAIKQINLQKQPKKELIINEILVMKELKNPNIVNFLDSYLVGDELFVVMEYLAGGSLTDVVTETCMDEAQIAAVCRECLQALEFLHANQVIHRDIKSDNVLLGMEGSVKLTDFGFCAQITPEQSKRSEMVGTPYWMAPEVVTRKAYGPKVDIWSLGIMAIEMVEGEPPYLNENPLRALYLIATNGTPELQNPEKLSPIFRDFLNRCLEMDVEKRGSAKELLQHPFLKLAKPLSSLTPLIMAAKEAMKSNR
`COc1ccc(-c2cc3c(=O)[nH]cnc3s2)cc1OC` gave an inhibition of 0%.
For `COc1ccc(NC(=S)Nc2cnc3[nH]cnn3c2=O)cn1`, the inhibition was 17%.
Work on `CC(=O)Nc1nc2cnc(-c3c(C)cccc3C)cn2n1` yielded an inhibition of 0%.
`CC(C)(C)Nc1c(C2CC2)nc2[nH]cnn12` was tested, and the inhibition was 10%.
Work on `O=c1cc(-c2ccccc2F)nc2[nH]ccn12` yielded an inhibition of 0%.

These compounds were tested against NUAK1 (human) (UniProt O60285) (assay: radiometric filter-binding kinase assay). Conditions: compound 100.0 µM; ATP 20 µM.
Compound `COc1ccc(-c2cc3c(=O)[nH]cnc3s2)cc1OC` has an inhibition of 0%.
For `COc1ccc(NC(=S)Nc2cnc3[nH]cnn3c2=O)cn1`, the inhibition was 0%.
`CC(=O)Nc1nc2cnc(-c3c(C)cccc3C)cn2n1` gave an inhibition of 0%.
With `CC(C)(C)Nc1c(C2CC2)nc2[nH]cnn12` the inhibition was 24%.
Work on `O=c1cc(-c2ccccc2F)nc2[nH]ccn12` yielded an inhibition of 6%.

What follows are compounds tested against MARK3 (human) (UniProt P27448) (assay: radiometric filter-binding kinase assay). Conditions: compound 100.0 µM; ATP 5 µM.
Chain of MARK3 (human) (P27448 whole entry, looked up): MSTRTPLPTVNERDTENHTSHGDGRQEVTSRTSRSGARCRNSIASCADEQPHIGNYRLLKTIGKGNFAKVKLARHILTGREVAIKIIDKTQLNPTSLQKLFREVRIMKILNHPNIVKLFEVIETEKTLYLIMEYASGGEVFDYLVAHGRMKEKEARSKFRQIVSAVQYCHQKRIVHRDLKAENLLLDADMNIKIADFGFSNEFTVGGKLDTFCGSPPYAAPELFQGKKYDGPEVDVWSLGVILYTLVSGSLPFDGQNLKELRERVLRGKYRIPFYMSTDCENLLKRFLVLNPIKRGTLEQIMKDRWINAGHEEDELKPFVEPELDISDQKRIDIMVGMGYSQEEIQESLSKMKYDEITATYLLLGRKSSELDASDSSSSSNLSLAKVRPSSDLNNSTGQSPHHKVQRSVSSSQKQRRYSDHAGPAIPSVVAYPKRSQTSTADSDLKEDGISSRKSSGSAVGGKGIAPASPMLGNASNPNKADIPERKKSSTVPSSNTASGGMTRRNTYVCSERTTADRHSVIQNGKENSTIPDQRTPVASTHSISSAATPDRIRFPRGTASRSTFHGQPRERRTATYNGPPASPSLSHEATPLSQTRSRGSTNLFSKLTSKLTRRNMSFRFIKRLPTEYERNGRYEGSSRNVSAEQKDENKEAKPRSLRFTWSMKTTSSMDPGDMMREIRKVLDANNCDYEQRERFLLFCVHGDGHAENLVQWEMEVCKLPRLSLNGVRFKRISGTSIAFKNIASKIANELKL
For `COc1ccc(-c2cc3c(=O)[nH]cnc3s2)cc1OC`, the inhibition was 24%.
For `COc1ccc(NC(=S)Nc2cnc3[nH]cnn3c2=O)cn1`, the inhibition was 17%.
`CC(=O)Nc1nc2cnc(-c3c(C)cccc3C)cn2n1` gave an inhibition of 0%.
`CC(C)(C)Nc1c(C2CC2)nc2[nH]cnn12` showed an inhibition of 0%.
`O=c1cc(-c2ccccc2F)nc2[nH]ccn12` showed an inhibition of 11%.

Each compound was assayed against DYRK2 (human) (UniProt Q92630) (assay: radiometric filter-binding kinase assay). Conditions: compound 100.0 µM; ATP 50 µM.
`COc1ccc(-c2cc3c(=O)[nH]cnc3s2)cc1OC` gave an inhibition of 56%.
Work on `COc1ccc(NC(=S)Nc2cnc3[nH]cnn3c2=O)cn1` yielded an inhibition of 27%.
Compound `CC(=O)Nc1nc2cnc(-c3c(C)cccc3C)cn2n1` has an inhibition of 0%.
`CC(C)(C)Nc1c(C2CC2)nc2[nH]cnn12` was tested, and the inhibition was 4%.
`O=c1cc(-c2ccccc2F)nc2[nH]ccn12` was tested, and the inhibition was 37%.

Each compound was assayed against PTK6 (human) (UniProt Q13882) (assay: radiometric filter-binding kinase assay). Conditions: compound 100.0 µM; ATP 20 µM.
With `COc1ccc(-c2cc3c(=O)[nH]cnc3s2)cc1OC` the inhibition was 16%.
With `COc1ccc(NC(=S)Nc2cnc3[nH]cnn3c2=O)cn1` the inhibition was 9%.
With `CC(=O)Nc1nc2cnc(-c3c(C)cccc3C)cn2n1` the inhibition was 0%.
In the case of `CC(C)(C)Nc1c(C2CC2)nc2[nH]cnn12`, the inhibition is reported as 25%.
Compound `O=c1cc(-c2ccccc2F)nc2[nH]ccn12` has an inhibition of 30%.

Each compound was assayed against EPHA2 (human) (UniProt P29317) (assay: radiometric filter-binding kinase assay). Conditions: compound 100.0 µM; ATP 50 µM.
Chain of EPHA2 (human) (P29317 whole entry, looked up): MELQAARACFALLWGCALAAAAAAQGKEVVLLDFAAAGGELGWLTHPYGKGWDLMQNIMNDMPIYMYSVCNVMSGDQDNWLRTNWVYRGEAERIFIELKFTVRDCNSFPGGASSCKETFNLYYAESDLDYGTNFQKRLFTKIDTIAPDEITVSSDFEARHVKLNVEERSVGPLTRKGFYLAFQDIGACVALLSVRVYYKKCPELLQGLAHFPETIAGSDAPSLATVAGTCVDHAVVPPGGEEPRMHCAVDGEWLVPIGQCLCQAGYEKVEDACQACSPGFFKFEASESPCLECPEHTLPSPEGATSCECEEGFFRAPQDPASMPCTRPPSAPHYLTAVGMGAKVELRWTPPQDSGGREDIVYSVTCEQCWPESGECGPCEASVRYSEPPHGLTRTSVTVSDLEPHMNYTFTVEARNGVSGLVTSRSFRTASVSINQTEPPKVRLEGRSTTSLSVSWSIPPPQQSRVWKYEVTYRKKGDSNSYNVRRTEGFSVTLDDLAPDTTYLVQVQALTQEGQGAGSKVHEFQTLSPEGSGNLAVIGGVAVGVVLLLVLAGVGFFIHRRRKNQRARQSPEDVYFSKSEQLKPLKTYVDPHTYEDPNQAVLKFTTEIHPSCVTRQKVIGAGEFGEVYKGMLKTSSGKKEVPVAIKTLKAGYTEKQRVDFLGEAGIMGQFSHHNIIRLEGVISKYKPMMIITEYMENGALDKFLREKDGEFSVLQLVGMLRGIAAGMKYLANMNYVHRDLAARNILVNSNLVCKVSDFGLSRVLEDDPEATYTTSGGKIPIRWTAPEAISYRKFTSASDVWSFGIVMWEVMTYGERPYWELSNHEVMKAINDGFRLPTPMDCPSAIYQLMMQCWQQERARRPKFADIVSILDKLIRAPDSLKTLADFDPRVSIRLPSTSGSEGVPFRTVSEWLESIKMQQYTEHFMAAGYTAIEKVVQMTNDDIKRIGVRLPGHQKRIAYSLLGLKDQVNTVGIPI
`COc1ccc(-c2cc3c(=O)[nH]cnc3s2)cc1OC` was tested, and the inhibition was 37%.
`COc1ccc(NC(=S)Nc2cnc3[nH]cnn3c2=O)cn1` was tested, and the inhibition was 0%.
Work on `CC(=O)Nc1nc2cnc(-c3c(C)cccc3C)cn2n1` yielded an inhibition of 0%.
For `CC(C)(C)Nc1c(C2CC2)nc2[nH]cnn12`, the inhibition was 0%.
Compound `O=c1cc(-c2ccccc2F)nc2[nH]ccn12` has an inhibition of 9%.
